We go through three compounds from PubChem BioAssay AID493108 (The Scripps Research Institute Molecular Screening Center, 2011).

Test systems include LYPLA1; LYPLA2; ABHD11.
Holding throughout (assay): LYPLA1 and LYPLA2 inhibition in cells, late-stage follow-up, cell-based, gel-based ABPP, fluorescence (AID 493108)
Conditions in all cases: competitive ABPP fluorescence gel, serine hydrolase inhibition, at 0.03 µM, active compounds read high

Activity calls are given as the source filed them. The rule behind the calls is not given here.

Consider `CCC1CCCCN1C(=O)n1ncc(C(O)(c2ccccc2)c2ccccc2)n1` (centres undefined), for which the inhibition (as a rule, the percentage by which the read-out fell short of the control) in the assay with LYPLA1 was 0% (inactive); in the assay with LYPLA2, 0% (inactive); with ABHD11, 100%.
Take `CC(C)(O)c1cnn(C(=O)N2CCC(C(C)(C)C)CC2)n1`: the inhibition in the assay on LYPLA1, with LYPLA2 and with ABHD11 was 100% each time.
As to `CC(C)(C)C1CCN(C(=O)n2ncc(C(O)(c3ccccc3)c3ccccc3)n2)CC1`, the inhibition with LYPLA1, in the assay on LYPLA2 and with ABHD11 was 100% throughout.
